US20210100245A1, “SYNERGISTIC FORMULATIONS FOR CONTROL AND REPELLENCY OF BITING ARTHROPODS” (BEDOUKIAN RESEARCH, INC., priority 2019, published 2021)

System: Adult female Aedes aegypti
Assay: Membrane feeder repellency test: mosquitoes probing treated collagen membranes over blood-filled wells
Assay type: in vivo
Conditions: for Test results (quantity not named; percentage from mosquito probing counts): 6.25 μl on collagen membrane, probes counted every 2 min for 20 min; for Test results, percentage relative to 0.3 wt % DEET in the same test: total repellent 0.30%, relative to 0.3 wt % DEET (=100%)
Method: Adult female Aedes aegypti were obtained from the i2LResearch USA, Inc. colony. Two hundred fifty (250) mosquitoes were used per replicate (seven replicates). Mosquitoes were at least 6 days old and had been deprived of sucrose solution for at least 18 hours prior to testing.
An exposure container was used to present the mosquitoes with a choice of blood-filled wells that were covered with collagen membranes (3 cm in diameter). The collagen membranes were treated by pipetting 6.25 μI of the test treatment onto the appropriate membrane and spreading it evenly with the tip of the pipette.
Exposure container. A 30.5 cm×30.5 cm×30.5 cm container (rigid plastic frame and a sleeved entry on one side and a sliding trap door on the bottom). The container was supported by four (4 cm high) legs.
Membrane feeder. Five wells (3 cm in diameter×8 mm in depth) in line on a hollow plastic block (6 cm wide×22 cm long×3 cm deep). The plastic block fit into the bottom of the exposure container. Hoses mounted on either end of the membrane feeder carried warm water that was pumped from a water bath. The sliding plastic trap door in the bottom of the exposure container covered and uncovered the wells in the membrane feeder, allowing mosquitoes to access the blood-filled wells that were covered with treated collagen membranes.
Study set-up. The membrane feeder was connected to a heated water bath, and warm water passed through the feeder via a circulating pump so that the wells were warmed to 96-100° F. Seventy-two (72) mg of ATP (disodium salt) were added to 26 ml of bovine blood. Sodium citrate was also added to the blood during collection to prevent clotting. The blood was poured into the wells until it completely filled each well (meniscus slightly above the level of the well).
Circular pieces (3 cm in diameter) of collagen membrane were placed over each of the wells. Care was taken to eliminate all air bubbles from between the membrane and the surface of the blood. Once wells were prepared, the blood was allowed to warm until the membrane temperature reached […]. Temperature was confirmed using a surface thermometer.
Treatment and exposure to mosquitoes. Once the collagen membranes were placed over the blood-filled wells, they were treated as described above. The membranes were allowed to dry for five minutes. Then the exposure container was placed on the membrane feeder. The trap door in the floor of the container was slid back, exposing the mosquitoes to the membranes. The number of mosquitoes probing the membrane covering each well was recorded every two minutes for twenty minutes. If a minimum of 20 total control probes were not achieved in a replicate, the replicate was repeated.
The above procedures were repeated until seven acceptable replicates were completed. […]

| SMILES | Test results (quantity not named; percentage from mosquito probing counts) (concentration 0.15%) | Test results (quantity not named; percentage from mosquito probing counts) (concentration 0.30%) | Test results, percentage relative to 0.3 wt % DEET in the same test |
| --- | --- | --- | --- |
| CC1CCC(C(C)C)C(OCC(O)CO)C1 (stereo not shown) [Coolact 10, menthoxypropane-1,2-diol] | 45.4% | 41.5% |  |
| CCN(CC)C(=O)c1cccc(C)c1 [DEET, N,N-diethyl-m-toluamide, reference compound] |  |  | 100.0% |
| CCNC(=O)C1CC(C)CCC1C(C)C (stereo not shown) [WS3, N-ethyl-p-menthane-3-carboxamide] |  |  | 130.0% |
